From patent EP0241837B1, “Stable injectable antiemetic compositions” (Bristol-Myers Squibb Company, priority 1986, dated 1987)
Read-outs that look alike come from different tables or passages of the source.

Test: Stability of Compound Ia (5 mg/ml) in aqueous solutions on storage at 56°C
Format: physicochemical
Conditions: for % Remaining (8 weeks): 80640 min; for remaining at 168 h: 1 week; for remaining at 336 h: 2 weeks
Procedure: The compounds of Formula I in aqueous, isotonic (isotonicity adjusted with sodium chloride and/or dextrose) and buffered ([…], pH 5.7 and 6.5) formulations containing the equivalent of 5 mg of free base of a compound of Formula I per ml have been found unsuitable for long term shelf life. Typical isotonic and buffered formulations lost 33% and 40%, respectively, of their potency following storage for eight weeks at 56°C. […] Tables 1 and 2 give the results of stability tests on the compound of Formula Ia in water and in isotonic saline, and in citrate buffers, respectively.
Tables 3 and 4, below, provide stability data for some of the stable injectable formulations of the present invention.

[1] = 0.01m citrate buffer, pH 5.7, 5 mg/ml in 0.01M citrate buffer pH 5.7, 56°C, average of duplicate samples, read-out: % Remaining(a) (pH 5.7)
[2] = 0.01m citrate buffer, pH 6.5, 5 mg/ml in 0.01M citrate buffer pH 6.5, 56°C, average of duplicate samples, read-out: % Remaining(a) (pH 6.5)
[3] = isotonic saline, 5mg/ml in isotonic saline, 56°C, average of duplicate samples, read-out: % Remaining(a) (Isotonic Saline)
[4] = water, 5mg/ml in water, 56°C, average of duplicate samples, read-out: % Remaining(a) (Water)

With `CCN(CC)CCNC(=O)c1cc(Cl)c(N)cc1OC(C)C(C)=O` (stereo not shown) [Compound Ia, 4-amino-2-(2-butanon-3-yl)-oxy-5-chloro-N-[2-(diethylamino)ethyl]benzamide] the “% Remaining(a) (pH 5.7)” value (5 mg/ml in 0.01M citrate buffer pH 5.7, 56°C, Initial, average of duplicate samples) was 100.0%, the “% Remaining(a) (pH 6.5)” value (5 mg/ml in 0.01M citrate buffer pH 6.5, 56°C, Initial, average of duplicate samples) was 100.0% and the “% Remaining(a) (Isotonic Saline)” value (5mg/ml in isotonic saline, 56°C, Initial, average of duplicate samples) was 100.0%. For the same compound, the “% Remaining(a) (Water)” value (5mg/ml in water, 56°C, Initial, average of duplicate samples) was 100.0%, the “% Remaining (8 weeks)” value (5mg/ml, Ethanol/Water (v/v) 0/100, calculated dielectric constant 78.5, 56°C, 8 weeks) was 89.4% and the “% Remaining (8 weeks)” value (5mg/ml, Ethanol/Water (v/v) 25/75, calculated dielectric constant 64.9, 56°C, 8 weeks) was 97.5%. The “% Remaining (8 weeks)” value (5mg/ml, Ethanol/Water (v/v) 50/50, calculated dielectric constant 51.4, 56°C, 8 weeks) was 99.1%, the remaining at 168 h [1] was 94.8% and the remaining at 336 h [1] was 87.8%. The remaining at 672 h (0.01m citrate buffer, pH 5.7, 5 mg/ml in 0.01M citrate buffer pH 5.7, 56°C, 4 weeks, average of duplicate samples, read-out: % Remaining(a) (pH 5.7)) was 77.2%, the remaining at 1344 h (0.01m citrate buffer, pH 5.7, 5 mg/ml in 0.01M citrate buffer pH 5.7, 56°C, 8 weeks, average of duplicate samples, read-out: % Remaining(a) (pH 5.7)) was 58.9% and the remaining at 168 h [2] was 93.6%. It also gave a remaining at 336 h [2] of 87.9%, a remaining at 672 h (0.01m citrate buffer, pH 6.5, 5 mg/ml in 0.01M citrate buffer pH 6.5, 56°C, 4 weeks, average of duplicate samples, read-out: % Remaining(a) (pH 6.5)) of 77.5% and a remaining at 1344 h (0.01m citrate buffer, pH 6.5, 5 mg/ml in 0.01M citrate buffer pH 6.5, 56°C, 8 weeks, average of duplicate samples, read-out: % Remaining(a) (pH 6.5)) of 60.3%. For the same compound, the remaining at 672 h (5% (w/v) glycerol, 5mg/ml, solvent 5% (w/v) Glycerol, calculated dielectric constant 76.3, 56°C, 4 weeks, read-out: % Remaining (4 weeks)) was 95.1%, the remaining at 1344 h (5% (w/v) glycerol, 5mg/ml, solvent 5% (w/v) Glycerol, calculated dielectric constant 76.3, 56°C, 8 weeks, read-out: %Remaining (8 weeks)) was 90.9% and the remaining at 672 h (15% (w/v) glycerol, 5mg/ml, solvent 15% (w/v) Glycerol, calculated dielectric constant 71.8, 56°C, 4 weeks, read-out: % Remaining (4 weeks)) was 96.5%. It also gave a remaining at 1344 h (15% (w/v) glycerol, 5mg/ml, solvent 15% (w/v) Glycerol, calculated dielectric constant 71.8, 56°C, 8 weeks, read-out: %Remaining (8 weeks)) of 94.2%, a remaining at 672 h (25% (w/v) glycerol, 5mg/ml, solvent 25% (w/v) Glycerol, calculated dielectric constant 71.4, 56°C, 4 weeks, read-out: % Remaining (4 weeks)) of 96.8% and a remaining at 1344 h (25% (w/v) glycerol, 5mg/ml, solvent 25% (w/v) Glycerol, calculated dielectric constant 71.4, 56°C, 8 weeks, read-out: %Remaining (8 weeks)) of 95.3%. It also gave a remaining at 672 h (25% (w/v) propylene glycol, 5mg/ml, solvent 25% (w/v) Propylene Glycol, calculated dielectric constant 67.3, 56°C, 4 weeks, read-out: % Remaining (4 weeks)) of 97.7%, a remaining at 1344 h (25% (w/v) propylene glycol, 5mg/ml, solvent 25% (w/v) Propylene Glycol, calculated dielectric constant 67.3, 56°C, 8 weeks, read-out: %Remaining (8 weeks)) of 96.8% and a remaining at 672 h (ethanol/water 0/100, 5mg/ml, Ethanol/Water (v/v) 0/100, calculated dielectric constant 78.5, 56°C, 4 weeks, read-out: % Remaining (4 weeks)) of 94.9%. For the same compound, the remaining at 672 h (ethanol/water 25/75, 5mg/ml, Ethanol/Water (v/v) 25/75, calculated dielectric constant 64.9, 56°C, 4 weeks, read-out: % Remaining (4 weeks)) was 98.7%, the remaining at 672 h (ethanol/water 50/50, 5mg/ml, Ethanol/Water (v/v) 50/50, calculated dielectric constant 51.4, 56°C, 4 weeks, read-out: % Remaining (4 weeks)) was 99.5% and the remaining at 672 h (ethanol/water 75/25, 5mg/ml, Ethanol/Water (v/v) 75/25, calculated dielectric constant 37.8, 56°C, 4 weeks, read-out: % Remaining (4 weeks)) was 99.6%. The remaining at 168 h [3] was 96%, the remaining at 336 h [3] was 91.6% and the remaining at 672 h (isotonic saline, 5mg/ml in isotonic saline, 56°C, 4 weeks, average of duplicate samples, read-out: % Remaining(a) (Isotonic Saline)) was 83.5%. The remaining at 1344 h (isotonic saline, 5mg/ml in isotonic saline, 56°C, 8 weeks, average of duplicate samples, read-out: % Remaining(a) (Isotonic Saline)) was 66.9%, the remaining at 168 h [4] was 97.4% and the remaining at 336 h [4] was 95.5%. It also gave a remaining at 672 h (water, 5mg/ml in water, 56°C, 4 weeks, average of duplicate samples, read-out: % Remaining(a) (Water)) of 90.8%, a remaining at 1344 h (water, 5mg/ml in water, 56°C, 8 weeks, average of duplicate samples, read-out: % Remaining(a) (Water)) of 80.5% and a remaining at 672 h (water, 5mg/ml, solvent Water, calculated dielectric constant 78.5, 56°C, 4 weeks (Table 4), read-out: % Remaining (4 weeks)) of 94.9%. The remaining at 1344 h (water, 5mg/ml, solvent Water, calculated dielectric constant 78.5, 56°C, 8 weeks (Table 4), read-out: %Remaining (8 weeks)) was 88.1%.
